Broadly, the IC50 is the point on the concentration scale where inhibition reaches its midpoint. Read a high IC50 as weaker potency.

Chain of ROCK2 (O75116 whole entry, species assumed): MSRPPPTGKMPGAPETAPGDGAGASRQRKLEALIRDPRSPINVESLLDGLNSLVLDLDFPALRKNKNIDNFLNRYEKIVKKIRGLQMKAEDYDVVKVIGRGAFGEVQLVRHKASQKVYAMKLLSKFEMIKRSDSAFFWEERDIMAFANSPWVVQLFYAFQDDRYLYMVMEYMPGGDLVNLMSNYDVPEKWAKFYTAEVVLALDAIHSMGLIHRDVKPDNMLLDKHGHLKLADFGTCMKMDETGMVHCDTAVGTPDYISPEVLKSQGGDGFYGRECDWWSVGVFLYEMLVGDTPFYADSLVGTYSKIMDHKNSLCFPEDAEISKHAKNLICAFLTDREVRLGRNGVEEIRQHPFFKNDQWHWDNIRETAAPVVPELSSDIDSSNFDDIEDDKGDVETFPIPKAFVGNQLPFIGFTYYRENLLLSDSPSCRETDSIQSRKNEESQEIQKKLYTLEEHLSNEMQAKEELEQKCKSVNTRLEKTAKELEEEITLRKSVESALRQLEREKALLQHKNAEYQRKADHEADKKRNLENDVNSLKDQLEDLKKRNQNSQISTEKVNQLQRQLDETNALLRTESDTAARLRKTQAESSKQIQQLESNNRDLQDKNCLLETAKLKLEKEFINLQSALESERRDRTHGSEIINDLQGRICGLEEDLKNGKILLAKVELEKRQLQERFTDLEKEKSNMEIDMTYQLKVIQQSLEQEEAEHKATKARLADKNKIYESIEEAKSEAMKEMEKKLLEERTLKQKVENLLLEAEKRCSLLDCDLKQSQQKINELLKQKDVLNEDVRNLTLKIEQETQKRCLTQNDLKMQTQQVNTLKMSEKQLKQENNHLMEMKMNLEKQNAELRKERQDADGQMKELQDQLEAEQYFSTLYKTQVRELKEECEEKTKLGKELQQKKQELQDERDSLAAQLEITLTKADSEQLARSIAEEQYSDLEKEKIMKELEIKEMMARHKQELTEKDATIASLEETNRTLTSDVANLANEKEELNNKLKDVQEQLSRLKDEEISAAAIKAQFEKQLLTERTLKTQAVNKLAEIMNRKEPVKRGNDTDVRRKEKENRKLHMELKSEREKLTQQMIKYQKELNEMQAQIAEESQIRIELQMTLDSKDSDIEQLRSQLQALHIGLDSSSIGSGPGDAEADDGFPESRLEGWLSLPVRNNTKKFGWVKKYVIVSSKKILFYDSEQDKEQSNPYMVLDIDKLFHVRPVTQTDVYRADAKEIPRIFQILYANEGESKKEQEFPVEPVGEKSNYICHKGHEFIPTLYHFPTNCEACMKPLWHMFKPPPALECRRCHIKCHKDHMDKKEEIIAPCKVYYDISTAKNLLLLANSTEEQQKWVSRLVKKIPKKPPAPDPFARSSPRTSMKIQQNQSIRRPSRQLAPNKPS

The assay concerns the target ROCK2 (Homo sapiens (Human), UniProt O75116). The assay can be described thus: ROCK assay (LABCHIP 3000 peptide phosphorylation assay). Type of assay: biochemical. Particulars: 5 μM ATP, 1.5 μM peptide substrate, dose-response. On the procedure:
The effectiveness of compounds of the present invention as ROCK inhibitors can be determined in a 30 μL assay containing 20 mM HEPES, pH 7.5, 20 mM MgCl2, 0.015% Brij-35, 4 mM DTT, 5 μM ATP and 1.5 μM peptide substrate (FITC-AHA-AKRRRLSSLRA-OH) (SEQ ID No. 1). Compounds were dissolved in DMSO so that the final concentration of DMSO was <2%, and the reaction was initiated with Rho kinase variants. After incubation, the reaction was terminated by the addition of EDTA and the phosphorylated and non-phosphorylated peptides separated using a LABCHIP® 3000 Reader (Caliper Life Sciences). […] Compounds were tested in dose-response format, and the inhibition of kinase activity was calculated at each concentration of compound. The inhibition data were fit using a curve-fitting program to determine the IC50; i.e., the concentration of compound required to inhibit 50% of kinase activity.
Regarding `Cc1cnc(NC(=O)Cc2ccc(Oc3ncccc3C(N)=O)c(F)c2)s1` [Example 088, 2-(2-fluoro-4-(2-((5-methylthiazol-2-yl)amino)-2-oxoethyl)phenoxy) nicotinamide], half-maximal inhibition (IC50) required 0.126 µM. In other words, the sub-micromolar range.

The molecule `NC(=O)c1ccc2nc(NC(=O)Cc3ccc(Oc4ncccc4C(N)=O)cc3)sc2c1` [Example 066, 2-(2-(4-((3-carbamoylpyridin-2-yl)oxy)phenyl)acet-amido)benzo[d]thi-azole-6-carboxamide] registered an IC50 of 0.83 µM. This IC50 is about 6.6-fold higher than that of the molecule before.

With `Cc1ccc2nc(NC(=O)Cc3ccc(Oc4ncccc4C(N)=O)c(F)c3)nn2c1C` [Example 131, 2-(4-(2-((5,6-dimethyl-[1,2,4]-triazolo[1,5-a]-pyridin-2-yl)-amino)-2-oxoethyl)-2-fluorophenoxy)-nicotinamide], the IC50 stood at 0.129 µM.

`Cn1nc(NC(=O)Cc2ccc(Oc3ncccc3C(N)=O)c(Cl)c2)c2cccnc21` [Example 010, 2-(2-chloro-4-(2-((1-methyl-1H-pyrazolo[3,4-b]pyridin-3-yl)amino)-2-oxoethyl)phenoxy)nicotinamide] returned an IC50 of 0.159 µM.

In the case of `NC(=O)c1cccnc1Oc1ccc(CC(=O)Nc2nc(-c3ccccc3)cs2)cc1` [Example 052, 2-(4-(2-oxo-2-((4-phenylthiazol-2-yl)amino)ethyl)phe-noxy)nicotinamide], the midpoint of inhibition, the IC50, lay at 0.177 µM.

`COc1ccc(Cc2nnc(NC(=O)Cc3ccc(Oc4ncccc4C(N)=O)c(F)c3)s2)cc1OC` [Example 093, 2-(4-(2-((5-(3,4-dimethoxybenzyl)-1,3,4-thiadiazol-2-yl)amino)-2-oxoethyl)-2-fluorophenoxy)nico-tinamide] registered an IC50 of 0.213 µM.

As for `NC(=O)c1cccnc1Oc1ccc(CC(=O)Nc2nc3cc(-c4cc[nH]c(=O)c4)ccc3s2)cc1F` [Example 024, 2-(2-fluoro-4-(2-oxo-2-((5-(2-oxo-1,2-dihydropyridin-4-yl)benzo[d]thiazol-2-yl)amino)ethyl)phe-noxy)nicotinamide], the IC50 was 0.008 µM.

Take `NC(=O)c1cccnc1Oc1ccc(CC(=O)Nc2nc3cc(F)ccc3n2CC2CC2)cc1Cl` [Example 174, 2-(2-chloro-4-(2-((1-(cyclo-propylmethyl)-5-fluoro-1H-benzo[d]-imidazol-2-yl)-amino)-2-oxo-ethyl)phenoxy)-nicotinamide]: the IC50 stood at 0.01 µM.

In turn, `CP(C)(=O)c1ccc2nc(NC(=O)Cc3ccc(Oc4ncccc4C(N)=O)c(F)c3)n(CC(F)F)c2c1` [Example 150, 2-(4-(2-((1-(2,2-difluoroethyl)-6-(dimethylphosphoryl)-1H-benzo[d]imidazol-2-yl)amino)-2-oxo-ethyl)-2-fluoro-phenoxy)nicotinamide] registered an IC50 of 0.465 µM.

Take `NC(=O)c1cccnc1Oc1ccc(CC(=O)Nc2cn3cc(C(F)(F)F)ccc3n2)cc1F` [Example 133, 2-(2-fluoro-4-(2-oxo-2-((6-(trifluoro-methyl)imidazo-[1,2-a]pyridin-2-yl)amino)ethyl)-phenoxy)nicotin-amide]: the IC50 came out at 0.198 µM.

In the case of `CC(C)(O)COc1ccc2c(c1)CCc1sc(NC(=O)Cc3ccc(Oc4ncccc4C(N)=O)cc3)nc1-2` [Example 108, 2-(4-(2-((7-(2-hydroxy-2-methylpropoxy)-4,5-dihydronaphtho[1,2-d]thiazol-2-yl)amino)-2-oxoethyl)phenoxy)nicotinamide], it took 0.04 µM to reach half-maximal inhibition (IC50). This IC50 is about 5-fold lower than that of the molecule before.

Take `Cc1sc(NC(=O)Cc2ccc(Oc3ncccc3C(N)=O)c(F)c2)nc1-c1ccc(S(C)(=O)=O)cc1` [Example 047, 2-(2-fluoro-4-(2-((5-methyl-4-(4-(methylsulfonyl)phenyl)thiazol-2-yl)amino)-2-oxoethyl)phenoxy)nico-tinamide]: the IC50 is 0.084 µM.

Consider `COc1ccc2c(c1)nc(NC(=O)Cc1ccc(Oc3ncccc3C(N)=O)c(F)c1)n2CC(F)F` [Example 120, 2-(4-(2-((1-(2,2-difluoroethyl)-5-methoxy-1H-benzo[d]imidazol-2-yl)amino)-2-oxoethyl)-2-fluorophenoxy)nicotinamide], for which the IC50 amounted to 0.023 µM.

On to `Cn1ccc(-c2ccc3sc(NC(=O)Cc4ccc(Oc5ncccc5C(N)=O)c(F)c4)nc3c2)cc1=O` [Example 025, 2-(2-fluoro-4-(2-((5-(1-methyl-2-oxo-1,2-dihydropyridin-4-yl)benzo[d]thiazol-2-yl)amino)-2-oxoethyl)phenoxy)nico-tinamide], for which the IC50 worked out at 0.023 µM. This counts as double-digit nanomolar.

In turn, `NC(=O)c1cccnc1Oc1ccc(CC(=O)Nc2nnc(-c3cnccn3)s2)cc1F` [Example 011, 2-(2-fluoro-4-(2-oxo-2-((5-(pyrazin-2-yl)-1,3,4-thiadiazol-2yl)amino)ethyl)phe-noxy) nicotinamide] showed an IC50 of 0.15 µM.

For `NC(=O)c1cccnc1Oc1ccc(CC(=O)Nc2nc3ccccc3n2CC2CC2)cc1F` [Example 167, 2-(4-(2-((1-(cyclo-propylmethyl)-1H-benzo[d]-imidazol-2-yl)-amino)-2-oxo-ethyl)-2-fluoro-phenoxy)nicotin-amide], the IC50 is 0.025 µM.

In the case of `NC(=O)c1cccnc1Oc1ccc(CC(=O)Nc2nc3c(F)cccc3n2CC(F)F)cc1Cl` [Example 173, 2-(2-chloro-4-(2-((1-(2,2-difluoro-ethyl)-4-fluoro-1H-benzo[d]-imidazol-2-yl)-amino)-2-oxo-ethyl)phenoxy)-nicotinamide], the IC50 turned out to be 0.008 µM. This IC50 lies about 3.1-fold lower than the previous one.

Regarding `Cc1sc(NC(=O)Cc2ccc(Oc3ncccc3C(N)=O)c(F)c2)nc1C1CC1` [Example 046, 2-(4-(2-((4-cyclopropyl-5-methylthiazol-2-yl)amino)-2-oxoethyl)-2-fluorophenoxy)nicotin-amide], inhibition was half-maximal at 0.022 µM (IC50).

`COc1ccn2nc(NC(=O)Cc3ccc(Oc4ncccc4C(N)=O)c(F)c3)nc2c1` [Example 008, 2-(2-fluoro-4-(2-((7-methoxy-[1,2,4]triazolo[1,5-a]pyridin-2-yl)amino)-2-oxoethyl)phenoxy)nicotinamide]: the IC50 turned out to be 0.007 µM. Against the preceding molecule, the IC50 is about 3.1-fold lower.

As to `NC(=O)c1cccnc1Oc1ccc(CC(=O)Nc2nc3cc(C(F)(F)F)ccc3n2CC2CC2)cc1Cl` [Example 177, 2-(2-chloro-4-(2-((1-(cyclo-propylmethyl)-5-(trifluoro-methyl)-1H-benzo[d]-imidazol-2-yl)-amino)-2-oxo-ethyl)phenoxy)-nicotinamide], inhibition was half-maximal at 0.007 µM (IC50).

With `Cn1cc(-c2ccc3sc(NC(=O)Cc4ccc(Oc5ncccc5C(N)=O)c(F)c4)nc3c2)cn1` [Example 035, 2-(2-fluoro-4-(2-((5-(1-methyl-1H-pyrazol-4-yl)benzo[d]thiazol-2-yl)amino)-2-oxoethyl)phenoxy)nico-tinamide], the IC50 was 0.01 µM. The IC50 values of the last two molecules are within 1.5-fold of each other.

Regarding `NC(=O)c1cccnc1Oc1ccc(CC(=O)Nc2nc(C3CCC3)c(-c3ccccn3)s2)cc1Cl` [Example 023, 2-(2-chloro-4-(2-((4-cyclobutyl-5-(pyridin-2-yl)thiazol-2-yl)amino)-2-oxoethyl)phenoxy)nicotinamide], the IC50 came to 0.004 µM. Against the preceding molecule, the IC50 is about 2.5-fold lower.

`NC(=O)c1cccnc1Oc1ccc(CC(=O)Nc2nc3cc(-c4cn[nH]c4)ccc3s2)cc1F` [Example 031, 2-(4-(2-((5-(1H-pyrazol-4-yl)benzo[d]thiazol-2-yl)amino)-2-oxoethyl)-2-fluorophenoxy)nicotin-amide] registered an IC50 of 0.008 µM.

`COCCn1c(NC(=O)Cc2ccc(Oc3ncccc3C(N)=O)c(F)c2)nc2ccccc21` [Example 155, 2-(2-fluoro-4-(2-((1-(2-methoxyethyl)-1H-benzo[d]-imidazol-2-yl)-amino)-2-oxo-ethyl)phenoxy)-nicotinamide] showed an IC50 of 1.93 µM.

Turning to `[2H]C([2H])([2H])n1ccc(-c2ccc3sc(NC(=O)Cc4ccc(Oc5ncccc5C(N)=O)c(F)c4)nc3c2)n1` [Example 034, 2-(2-fluoro-4-(2-((5-(1-(methyl-d3)-1H-pyrazol-3-yl)benzo[d]thiazol-2-yl)amino)-2-oxoethyl)phenoxy)nico-tinamide], the IC50 was 0.008 µM.

For the molecule `Cc1cccc(Nc2ncnc3ccc(NC(=O)Cc4ccc(Oc5ncccc5C(N)=O)cc4)cc23)c1` [Example 077, 2-(4-(2-oxo-2-((4-(m-tolylamino)quinaz-olin-6-yl)amino)ethyl)phe-noxy)nicotinamide], the IC50 is 0.042 µM.

In turn, `Cn1nc(C(F)(F)F)cc1-c1ccc2sc(NC(=O)Cc3ccc(Oc4ncccc4C(N)=O)c(F)c3)nc2c1` [Example 006, 2-(2-fluoro-4-(2-((5-(1-methyl-3-(trifluoromethyl)-1H-pyrazol-5-yl)benzo[d]thiazol-2-yl)amino)-2-oxoethyl)phenoxy) nicotinamide] gave an IC50 of 0.018 µM.

The molecule `Cc1cccc(-c2nc(NC(=O)Cc3ccc(Oc4ncccc4C(N)=O)c(F)c3)sc2C)n1` [Example 151, 2-(2-fluoro-4-(2-((5-methyl-4-(6-methylpyridin-2-yl)thiazol-2-yl)amino)-2-oxoethyl)phenoxy)nicotinamide] yielded an IC50 of 0.044 µM. This IC50 lies about 2.4-fold higher than the previous one.

Consider `CP(C)(=O)c1ccc2nc(NC(=O)Cc3ccc(Oc4ncccc4C(N)=O)c(F)c3)n(CC3CC3)c2c1` [Example 145, 2-(4-(2-((1-(cyclopropylmethyl)-6-(dimethylphosphoryl)-1H-benzo[d]imidazol-2-yl)amino)-2-oxoethyl)-2-fluorophenoxy)nicotinamide], for which the midpoint of inhibition, the IC50, lay at 0.133 µM.

As to `CC(C)(O)COc1ccc2sc(NC(=O)Cc3ccc(Oc4ncccc4C(N)=O)c(Cl)c3)nc2c1` [Example 112, 2-(2-chloro-4-(2-((5-(2-hydroxy-2-methylpropoxy)benzo[d]thiazol-2-yl)amino)-2-oxoethyl)phenoxy)nicotinamide], inhibition was half-maximal at 0.006 µM (IC50).

`Cc1sc(NC(=O)Cc2ccc(Oc3ncccc3C(N)=O)c(F)c2)nc1-c1cnc(C(C)(C)O)nc1` [Example 042, 2-(2-fluoro-4-(2-((4-(2-(2-hydroxypropan-2-yl)pyrimidin-5-yl)-5-methylthiazol-2-yl)amino)-2-oxoethyl)phenoxy)nico-tinamide] registered an IC50 of 0.471 µM.

The record behind these values is patent US11306081B2, “Phenylacetamides as inhibitors of rock” (BRISTOL-MYERS SQUIBB COMPANY, priority 2017, dated 2022).
